US4954516A, “Use of 1-benzyl-aminoalkyl-pyrrolidinones as antidepressants” (Boehringer Ingelheim KG, priority 1986, dated 1990)

What was measured:
[1] = test system: adrenergic, serotonergic receptors; experiment: Receptor bonding (adrenergic, serotonergic); format: binding; conditions: for Receptor bonding: result in words
[2] = test system: isolated one-day-old chicks; experiment: chick call test (distress call activation in isolated chicks); format: in vivo; conditions: for ED150: Gallus gallus, ip
Text: The call frequency of isolated one-day-old chicks which decreases during the course of the test is taken as an experimental behavioural model for manifestations of resignation in depression. […] Neurol. Psychiat.

cholinergic function = experiment: Effect on cholinergic function; conditions: result in words
Tetrabenazine = Tetrabenazine antagonism (ptosis alleviation, mouse); format: in vivo; conditions: Table 1
LD50, mouse, oral route = conditions: in vivo, by oral route

Compound: 1-acetamido-2-pyrrolidinone [Compound B, reference compound]
- Receptor bonding [1]: none
- Chick call test ED150 ([2]; i.p., Table 1): > 160 mg/kg
- Effect on cholinergic function (cholinergic function): none
- Tetrabenazine antagonism (ptosis alleviation, mouse) (Tetrabenazine): > 640 mg/kg

Compound: O=C1CC(CN2CCOCC2)CN1Cc1ccc(F)cc1 (centres unmarked) [1-(4-Fluorobenzyl)-4-(morpholinomethyl)-pyrrolidin-2-one]
- ED150 ([2]; Table II): 80 mg/kg

Compound: COc1ccc(CN2CC(CN)CC2=O)cc1 (centres unmarked) [C, 1-(4-Methoxybenzyl)-4-aminomethyl-pyrrolidin-2-one]
- ED150 ([2]; Table II): 25 mg/kg

Compound: NCC1CC(=O)N(Cc2ccccc2)C1 (centres unmarked) [Compound A, 1-benzyl-4-aminomethyl-pyrrolidin-2-one]
- IC50 [1]: > 10 µM
- Receptor bonding [1]: none
- ED150 ([2]; Table 1): 40 mg/kg
- LD50 (LD50, mouse, oral route): > 2000 mg/kg
- Effect on cholinergic function (cholinergic function): Demand
- Tetrabenazine antagonism (ptosis alleviation, mouse) (Tetrabenazine): 100 mg/kg

Compound: NCC1CC(=O)N(Cc2ccc(F)cc2)C1 (centres unmarked) [D, 1-(4-Fluorobenzyl)-4-aminomethyl-pyrrolidin-2-one]
- ED150 ([2]; Table II): 20 mg/kg

Compound: CN1CCN(CC2CC(=O)N(Cc3ccccc3)C2)CC1 (centres unmarked) [H, 1-Benzyl-4-(N-methylpiperazinylmethyl)-pyrrolidin-2-one]
- ED150 ([2]; Table II): 18 mg/kg

Compound: CCN(CC)CC1CCC(=O)N1Cc1ccccc1 (centres unmarked) [J, 1-Benzyl-5-diethylaminomethyl-pyrrolidin-2-one]
- ED150 ([2]; Table II): 0.01 mg/kg

Compound: O=C1CCC(CN2CCCC2)N1Cc1ccccc1 (centres unmarked) [K, 1-Benzyl-5-pyrrolidinomethyl-pyrrolidin-2-one]
- ED150 ([2]; Table II): 0.1 mg/kg

Compound: CN(C)CC1CCC(=O)N1Cc1ccc(Cl)cc1 (centres unmarked) [L, 1-(p-chlorobenzyl)-5-dimethylaminomethyl-pyrrolidin-2-one]
- ED150 ([2]; Table II): 0.1 mg/kg
